For data set [1], the system named is phosphodiesterase (PDE) from human blood platelets. Briefly: PDE Inhibition (human blood platelet phosphodiesterase, 3H-cAMP hydrolysis). The data set is classed as biochemical. The following applies: 1 μmol/liter 3H-cAMP, 15 minutes at 37° C., pH 7.4. The procedure: cAMP is hydrolyzed to AMP by phosphodiesterase (PDE) from various sources, including blood platelets.
The phosphodiesterase used was prepared by centrifugal extraction at 10,000 G from human blood platelets which were frozen in water and then thawed.
0.3 ml of a mixture containing 0.1 mol/liter of trihydroxy-aminomethane (pH 7.4), 3 mmols/liter of magnesium chloride, 1 mmol/liter of AMP, 1 μmol/liter of ^3 H-cAMP (specific activity about 10 MBq/μmol), PDE and the inhibitor under investigation (water in the case of the control) was incubated for 15 minutes at 37° C. The incubation was stopped by the addition of 0.5 ml zinc sulfate (0.266 mol/liter) and 0.5 ml barium hydroxide (0.226 mol/liter), the precipitate was centrifuged, and the activity remaining in the unreacted ^3 H-cAMP in the supernatant was determined. From a comparison of the results for inhibitor and control cases, the concentration of the respective inhibitor necessary for a 50% inhibiting effect (IC50) was calculated: […]

For another data set, the system named is conscious mice. Description: Determination of the prolongation of bleeding time (tail tip, oral, conscious mice). The following applies: Mus musculus, 2.5 mg/kg oral, after 1 hour, compared to control group, 5 animals per experiment. Type of data set: in vivo. The procedure: To measure the bleeding time, 2.5 mg/kg of the test compound were administered orally to conscious mice. After one hour, 0.5 mm of the tip of the tail of each mouse was cut off and the droplets of blood were gently removed with filter paper every 30 seconds. The number of drops of blood thus obtained give a bleeding time (5 animals per experiment).
The results of the following table represent the prolongation of the bleeding time in percent as compared to a control group: […]

The nature of data set [2]: Acute toxicity, single oral dose. To be noted: mouse, in vivo; single oral dose of 250 mg (E: 1000 mg), 14 days observation, mice; read-out: animals that died out of 10. Type of data set: in vivo, mice. The procedure: (§1) The acute toxicity of the compounds was determined in groups of 10 mice after oral administration of a single dose (observation period: 14 days): […]
In the next data set the test system is mice. Description: Acute toxicity, single oral dose. Type of data set: in vivo. To be noted: groups of 10 mice, single oral dose, observation period 14 days; dose at which 0 out of 10 animals died. On the procedure: as §1

Turning to `N=S(=O)(CCCCOc1ccc2c(c1)CCC(=O)N2)c1ccc(Cl)cc1` (stereo not shown) [D, 6-[4-(4-chlorophenyl-sulfoximino)-butoxy]-3,4-dihydrocarbostyril], in data set [1], the IC50 was 840 nM. This compound showed a change in vivo at 2.5 mg/kg with conscious mice of 53%. The mortality at 336 h in data set [2] was determined as 0%. Moreover, the “Approximate acute toxicity (dose)” value with mice is given as 250 mg.

In data set [1], `CS(=N)(=O)CCCCOc1ccc2c(c1)CCC(=O)N2` (stereo not shown) [Compound A, 6-(4-methylsulfoximino-butoxy)-3,4-dihydrocarbostyril mesitylenesulfonate] had an IC50 of 45000 nM. The same compound showed a change in vivo at 2.5 mg/kg in the data set on conscious mice of 73%. For the same compound, the mortality at 336 h in data set [2] was 0%. Moreover, in the data set on mice, the “Approximate acute toxicity (dose)” value stood at 250 mg.

In the case of `CCCC(=O)N=S(=O)(CCCCOc1ccc2c(c1)CCC(=O)N2)c1ccc(Cl)c(Cl)c1` (stereo not shown) [O, 6-[4-(N-butyryl-3,4-dichlorophenyl-sulfoximino)-butoxy]-3,4-dihydrocarbostyril], the IC50 in data set [1] is 530 nM. Also, the change in vivo at 2.5 mg/kg in the data set with conscious mice is > 233%.

In data set [1], `N=S(=O)(CCCCOc1ccc2c(c1)CCC(=O)N2)c1ccc(C2CCCCC2)cc1` (stereo not shown) [L, 6-[4-(4-cyclohexylphenyl-sulfoximino)-butoxy]-3,4-dihydrocarbostyril] registered an IC50 of 52 nM. In addition, the change in vivo at 2.5 mg/kg in the data set with conscious mice was > 191%.

In turn, `N=S(=O)(CCCCOc1ccc2c(c1)CCC(=O)N2)c1ccc(F)cc1` (stereo not shown) [C, 6-[4-(4-fluorophenyl-sulfoximino)-butoxy]-3,4-dihydrocarbostyril] gave a 50% inhibitory concentration (IC50) in data set [1] of 1200 nM. Moreover, the change in vivo at 2.5 mg/kg in the data set on conscious mice was 125%. Also, the mortality at 336 h in data set [2] was determined as 0%. In the data set with mice, the “Approximate acute toxicity (dose)” value was determined as 250 mg.

`CC(C)(C)c1ccc(S(=N)(=O)CCCCOc2ccc3[nH]c(=O)ccc3c2)cc1` (stereo not shown) [M, 6-[4-(4-tert.butylphenyl-sulfoximino)-butoxy]-carbostyril] yielded an IC50 in data set [1] of 210 nM. Also, the change in vivo at 2.5 mg/kg with conscious mice was > 191%.

In data set [1], `N=S(=O)(CCCCOc1ccc2[nH]c(=O)ccc2c1)c1ccc(Cl)cc1` (stereo not shown) [H, 6-[4-(4-chlorophenyl-sulfoximino)-butoxy]-carbostyril] displayed a half-inhibitory concentration (IC50) of 170 nM. This compound returned a change in vivo at 2.5 mg/kg in the data set with conscious mice of 78%. Further, the mortality at 336 h in data set [2] amounted to 0%. The “Approximate acute toxicity (dose)” value with mice is on record as 250 mg.

`CC(=O)N=S(=O)(CCCCOc1ccc2c(c1)C(C)(C)C(=O)N2)c1ccc(Cl)cc1` (stereo not shown) [P, 5-[4-(N-Acetyl-4-chlorophenyl-sulfoximino)-butoxy]-3,3-dimethyl-indolin-2-one] showed a 50% inhibitory concentration (IC50) in data set [1] of 1800 nM. In the data set with conscious mice, the change in vivo at 2.5 mg/kg is > 169%.

The compound `N=S(=O)(CCCCOc1ccc2[nH]c(=O)ccc2c1)c1ccc(F)cc1` (stereo not shown) [G, 6-[4-(4-fluorophenyl-sulfoximino)-butoxy]-carbostyril] showed an IC50 in data set [1] of 400 nM. Moreover, in the data set with conscious mice, the change in vivo at 2.5 mg/kg was found to be 85%. Besides, in data set [2], the mortality at 336 h is 0%. Also, the “Approximate acute toxicity (dose)” value in the data set on mice amounted to 250 mg.

As to `N=S(=O)(CCCCOc1ccc2c(c1)CCC(=O)N2)c1ccccc1` (stereo not shown) [B, 6-(4-phenylsulfoximino-butoxy)-3,4-dihydrocarbostyril], in data set [1], the IC50 is 2000 nM. For the same compound, the change in vivo at 2.5 mg/kg in the data set on conscious mice was > 161%. The mortality at 336 h in data set [2] worked out at 0%. For the same compound, the “Approximate acute toxicity (dose)” value in the data set with mice is 250 mg.

For `Cc1cc(S(=N)(=O)CCCCOc2ccc3[nH]c(=O)ccc3c2)ccc1Br` (stereo not shown) [Compound I, 6-[4-(3-methyl-4-bromophenyl-sulfoximino)-butoxy]-carbostyril], the midpoint of inhibition in data set [1], the IC50, lay at 39 nM. Further, the change in vivo at 2.5 mg/kg with conscious mice was > 275%. In addition, the mortality at 336 h in data set [2] came out at 0%. In the data set with mice, the “Approximate acute toxicity (dose)” value came out at 250 mg.

In turn, `COc1ccc(S(=N)(=O)CCCCOc2ccc3c(c2)CCC(=O)N3)cc1OC` (stereo not shown) [R, 6-[4-(3,4-dimethoxyphenyl-sulfoximino)-butoxy]-3,4-dihydrocarbostyril] registered an IC50 in data set [1] of 1600 nM. Further, the change in vivo at 2.5 mg/kg with conscious mice is > 218%.

As to `CC(C)(C)c1ccc(S(=N)(=O)CCCCOc2ccc3c(c2)CCC(=O)N3)cc1` (stereo not shown) [K, 6-[4-(4-tert.butylphenyl-sulfoximino)-butoxy]-3,4-dihydrocarbostyril], in data set [1], the midpoint of inhibition, the IC50, lay at 240 nM. The change in vivo at 2.5 mg/kg in the data set on conscious mice was > 180%.

Take `N=S(=O)(CCCCOc1ccc2[nH]c(=O)ccc2c1)C1CCCCC1` (stereo not shown) [N, 6-(4-cyclohexylsulfoximino-butoxy)-carbostyril]: the concentration for half-maximal inhibition (IC50) in data set [1] was 680 nM. In addition, the change in vivo at 2.5 mg/kg with conscious mice is > 184%.

In data set [1], `COc1ccc(S(=O)(CCCCOc2ccc3c(c2)CCC(=O)N3)=NC(=O)c2ccc(C(C)(C)C)cc2)cc1OC` (stereo not shown) [Q, 6-[4-(N-tert.benzoyl-3,4-dimethoxyphenyl-sulfoximino)-butoxy]-3,4-dihydrocarbostyril] returned a half-maximal inhibitory concentration (IC50) of 3100 nM. The change in vivo at 2.5 mg/kg with conscious mice is > 158%.

Consider `CC(=O)N=S(=O)(CCCCOc1ccc2c(c1)CCC(=O)N2)c1ccc(Cl)c(Cl)c1` (stereo not shown) [E, 6-[4-(N-acetyl-3,4-dichlorophenyl-sulfoximino)-butoxy]-3,4-dihydrocarbostyril], for which half-maximal inhibition in data set [1] (IC50) was put at 840 nM. The change in vivo at 2.5 mg/kg in the data set on conscious mice is > 194%. Moreover, the mortality at 336 h in data set [2] was found to be 0%. Also, the “Approximate acute toxicity (dose)” value with mice is recorded as 1000 mg.

In data set [1], `Cc1ccc(S(=O)(=O)N=S(=O)(CCCCOc2ccc3c(c2)CCC(=O)N3)c2ccc(Cl)c(Cl)c2)cc1` (stereo not shown) [F, 6-[4-(N-p-toluenesulfonyl-3,4-dichlorophenyl-sulfoximino)-butoxy]-3,4-dihydrocarbostyril] showed a 50% inhibitory concentration (IC50) of 900 nM. Besides, in the data set with conscious mice, the change in vivo at 2.5 mg/kg is > 212%. Also, the mortality at 336 h in data set [2] is 0%. The “Approximate acute toxicity (dose)” value with mice was found to be 250 mg.

As a reminder, the IC50 is the concentration that gives 50% inhibition. Read a high IC50 as lower potency.

For the origin of these results see patent US4551464A, “Antithrombotic sulfoximino carbostyrils” (Dr. Karl Thomae Gesellschaft mit beschrankter Haftung, priority 1981, dated 1985).
